The text below walks through data of patent US5965537A, “Dolastatin 15 derivatives with carbonyl and heterocyclic functionalities at the C-terminus” (BASF Aktiengesellschaft, priority 1997, dated 1999).

Some results are limits rather than exact numbers.

The first data set has as its system HT-29 colon carcinoma cells. The experiment in a line: Cytotoxicity, microculture tetrazolium assay (MTT), HT-29 cell system. It is filed as cell-based. To be noted: 48 hours incubation, T/C of 50% growth inhibition. Here is the method:
Cytotoxicity was measured using standard methodology for adherent cell lines, such as the microculture tetrazolium assay (MTT). Details of this assay have been published (Alley, M. C., et al., Cancer Research, 48: 589-601,(1988)). Exponentially growing cultures of HT-29 colon carcinoma cells were used to make microtiter plate cultures. Cells were seeded at 5000-20,000 cells per well in 96-well plates (in […] of media), and grown overnight at 37° C. Test compounds were added, in 10-fold dilutions varying from 10^-4 M to 10^-10 M. Cells were then incubated for 48 hours. To determine the number of viable cells in each well, the MTT dye was added ([…] of a 3 mg/ml solution of 3-(4,5-dimethylthiazol-2-yl)-2,5-diphenyltetrazolium bromide in saline). This mixture was incubated at 37° C. for 5 hours, and then […] of 25% SDS, pH 2, was added to each well. After an overnight incubation, the absorbance of each well at 550 nm was read using an ELISA reader. The values for the mean ±SD of data from replicated wells were calculated, using the formula % T/C (% viable cells treated/control). The concentration of test compound which gives a T/C of 50% growth inhibition was designated as the IC50.
Table 9, below, presents the IC50 values determined in the HT-29 cell system: […]
Take “2-[(S)-(Me2 Val-Val-MeVal-Pro-pyrrolidin-2-yl)]-3,4-dimethyl-thiazole [III-28]”: the IC50 (in general, the concentration that inhibits the measured activity by half) turned out to be 400 nM.

Turning to “2-[(S)-(Me2 Val-Val-MeVal-Pro-pyrorolidin-2-yl)]-5-phenyloxazole [III-12]”, it took 900 nM to reach half-maximal inhibition (IC50).

`COc1ccc(C(=O)[C@@H]2CCCN2C(=O)[C@@H]2CCCN2C(=O)[C@H](C(C)C)N(C)C(=O)[C@@H](NC(=O)[C@H](C(C)C)N(C)C)C(C)C)cc1` [Compound I-22, (S)-(Me2 Val-Val-MeVal-Pro-pyrrolidin-2-yl)-(4-methoxyphenyl) ketone]: the IC50 was above 1000 nM.

For the compound “(S)-(Me2Val-Val-MeVal-Pro-pyrrolidin-2-yl)-trifluoromethyl-ketone [Compound I-54]”, the IC50 is above 1000 nM.

In the case of `CCCCC(=O)[C@@H]1CCCN1C(=O)[C@@H]1CCCN1C(=O)[C@H](C(C)C)N(C)C(=O)[C@@H](NC(=O)[C@H](C(C)C)N(C)C)C(C)C` [Compound I-5, (S)-(Me2 Val-Val-MeVal-Pro-pyrrolidin-2-yl)butylketone], the IC50 is above 1000 nM.

In turn, `CC(=O)[C@@H]1CCCN1C(=O)[C@@H]1CCCN1C(=O)[C@H](C(C)C)N(C)C(=O)[C@@H](NC(=O)[C@H](C(C)C)N(C)C)C(C)C` [Compound I-1, (S)-(Me2 Val-Val-MeVal-Pro-pyrrolidin-2-yl)-methylketone] returned an IC50 above 1000 nM.

In turn, `CC(C)[C@H](NC(=O)[C@H](C(C)C)N(C)C)C(=O)N(C)[C@H](C(=O)N1CCC[C@H]1C(=O)N1CCC[C@H]1C(=O)c1ccc(F)cc1)C(C)C` [Compound I-32, (S)-(Me2Val-Val-MeVal-Pro-pyrrolidin-2-yl)-(4-fluorophenyl) ketone] showed an IC50 above 1000 nM.

The compound `COCC(=O)[C@@H]1CCCN1C(=O)[C@@H]1CCCN1C(=O)[C@H](C(C)C)N(C)C(=O)[C@@H](NC(=O)[C@H](C(C)C)N(C)C)C(C)C` [Compound I-12, (S)-(Me2 Val-Val-MeVal-Pro-pyrrolidin-2-yl)methoxy-methylketone] returned an IC50 of 400 nM.

A further data set has as its system P388 lymphocytic leukemia (PS system) cell line.
Experiment: not given
The following applies: cited from earlier work.
Dolastatin 15: the “inhibition of growth of P388 lymphocytic leukemia cell line” value was “markedly inhibits the growth”.

Tested on in another data set: not given
Experiment: not given
To be noted: synthetic Dolastatin 15; cited from earlier work.
Regarding Dolastatin 15, the “solubility in aqueous systems” value was “poor solubility in aqueous systems”.
